# Test system: HACAT cells
# Assay: In vitro cell proliferation test (MTT assay) on HACAT cells
# Type: cell-based, human
# Conditions: 48h, highest concentrations: Cocoa 16µg/mL, Zinc 4µg/mL
# From the text: The MTT assay (3-(4,5-dimethylthiazol-2-yl)-2,5-diphenyltetrazolium bromide) is a colorimetric assay used to evaluate in vitro cell proliferation, as it allows to measure proliferation and cell viability through the evaluation of mitochondrial activity (Mosmann et al., 1983). This method is very useful to measure cell growth following treatment with mitogenic agents, antigenic stimuli, growth factors and for cytotoxicity studies. […] Formazan forms crystals, insoluble in the intracellular environment, to which the membranes are substantially impermeable: the molecule can therefore enter the cell, but the product cannot exit if it has been correctly metabolized, that is if the electron transport chains are still metabolically active. The formazan crystals are subsequently solubilized in dimethyl sulfoxide (DMSO), thus causing the solution to color change from yellow to dark blue-violet. The assay was carried out following the method by Mosmann (1983), with some minor modifications. […] The absorbance of the colored solution was measured using a spectrophotometric reader for microplates (BioTek Instruments Inc., BadFriedrichshall, Germany) at a wavelength of 570 nm (reference wavelength at 630 nm). The data were expressed as a percentage of cell viability compared to control cells (ctr), according to the following formula: % cell viability/ctr = (Abssample/Absctr)*100. […]
substance,measurement,value
Zinc,cytotoxic activity on HACAT cells,significant (p<0.05) cytotoxic activity
